Results taken from patent US9642808B2, “Extended release compositions comprising mycophenolate sodium and processes thereof” (PANACEA BIOTECH LIMITED, priority 2007, dated 2017).
Where two headings read alike, the source gives them in different places.

Key:
[1] = 423 de novo kidney allograft recipients; cited from earlier work
[2] = cited from earlier work
[3] = pH-dependent solubility of the drug; format: physicochemical
Description: The present invention provides a stable extended release single unit dosage form composition such as matrix tablets which could provide substantially linear drug release for a prolonged duration of time during the transit through varying pHs of the GIT.
The prior art formulation approaches lead to a pharmaceutical composition which has a suitable fast disintegration time but not necessarily a suitable dissolution rate of the active agent under acidic conditions, i.e. a multiparticulate composition in the form of a tablet with an extragranularly added disintegrant will rapidly disintegrate into granules but the dissolution of the drug substance from the composition and/or the disintegrated composition under acidic conditions may be unsuitable and, low due to the solubility properties of the active agent itself. The availability of an active agent with respect to absorption, i.e. entrance into the circulatory system, is dependant on the presence of the active agent in dissolved form as it is generally accepted that only dissolved substances are capable of passing the mucous membranes in the gastro-intestinal tract. Therefore, it is important that the dissolution of the active agent is suitably fast even under acidic conditions in order to enable absorption from the stomach so that the absorption of the active agent is continuous throughout the GIT, and the bioavailability is not compromised.

[4] = controlled de novo and maintenance renal studies

SMILES | incidence of GI adverse events [1] [%] | Adverse Events (%): Anemia [2, 4] [%] | Adverse Events (%): Constipation [2, 4] [%] | Adverse Events (%): Diarrhoea [2, 4] [%] | Adverse Events (%): Dyspepsia [2, 4] [%] | Adverse Events (%): Insomnia [2, 4] [%] | Adverse Events (%): Leukopenia [2, 4] [%] | Adverse Events (%): Nausea [2, 4] [%] | Adverse Events (%): Urinary Tract Infection [2, 4] [%] | Adverse Events (%): Vomiting [2, 4] [%] | Adverse Events (%): CMV infections ([2]; in vivo) [%] | solubility ([3]; pH above 6.0) | solubility ([3]; pH below 6.0) | solubility in an acidic medium ([3]; pH of from about 1 to about 3) | Adverse Events (%): CMV infections [2, 4] [%]
COc1c(C)c2c(c(O)c1C/C=C(\C)CCC(=O)O)C(=O)OC2 [MPS, mycophenolate sodium] | 79.8 | 21.9 | 39.5 | 23.5 | 19 | 23.8 | 20.5 | 27.1 | 33.3 | 23 | 18.1 | high solubility | poor solubility | substantially low solubility | –
COc1c(C)c2c(c(O)c1C/C=C(\C)CCC(=O)OCCN1CCOCC1)C(=O)OC2 [MMF, mycophenolate mofetil] | 77.1 | 21.6 | 38.0 | 24.8 | 22.5 | 23.5 | 19.2 | 29.1 | 29.1 | 20 | – | – | – | – | 20.2
